Results: US9102752B2, “Peptide vaccine for prevention and immunotherapy of dementia of the Alzheimer's type” (United Biomedical, Inc., priority 2013, dated 2015)

Columns and labels:
[1] = test system: anti-Aβ antibodies in sera from vaccinated baboons; experiment: Epitope mapping, 10-mer peptide-based ELISA with sera from vaccinated baboons; conditions: peptide as plate coating
Description: Fine specificity analyses of anti-Aβ antibodies in immunized hosts or vaccines were determined by epitope mapping.
These nested peptides were used individually to coat microtiter wells as solid-phase immunoadsorbents for ELISA tests. The positive control ELISA plate was coated with Aβ1-28. They were tested for antibody binding with the sera from the four immunized baboons, from weeks 0, 10, 84 and 111. Baboon sera were serially diluted and assayed on plates coated with a 10-mer peptide at 5 ug/mL.

[2] = test system: anti-Aβ antibodies in sera of vaccinated patients; experiment: Epitope mapping, competitive binding inhibition EIA with patient sera (10-mer peptides, IC50); parameters: species or system human; Epitope mapping, fine specificity analysis, serum of subject P210: unit not given here; conditions: for Epitope mapping, fine specificity analysis, serum of subject P101: serum 16 wpi of vaccinated patient P101; for Epitope mapping, fine specificity analysis, serum of subject P102: serum 16 wpi of vaccinated patient P102; for Epitope mapping, fine specificity analysis, serum of subject P103: serum 16 wpi of vaccinated patient P103; for Epitope mapping, fine specificity analysis, serum of subject P104: serum 16 wpi of vaccinated patient P104; for Epitope mapping, fine specificity analysis, serum of subject P105: serum 16 wpi of vaccinated patient P105; for Epitope mapping, fine specificity analysis, serum of subject P106: serum 16 wpi of vaccinated patient P106; for Epitope mapping, fine specificity analysis, serum of subject P107: serum 16 wpi of vaccinated patient P107; for Epitope mapping, fine specificity analysis, serum of subject P108: serum 16 wpi of vaccinated patient P108; for Epitope mapping, fine specificity analysis, serum of subject P109: serum 16 wpi of vaccinated patient P109; for Epitope mapping, fine specificity analysis, serum of subject P201: serum 16 wpi of vaccinated patient P201; for Epitope mapping, fine specificity analysis, serum of subject P202: serum 16 wpi of vaccinated patient P202; for Epitope mapping, fine specificity analysis, serum of subject P203: serum 16 wpi of vaccinated patient P203; for Epitope mapping, fine specificity analysis, serum of subject P204: serum 16 wpi of vaccinated patient P204; for Epitope mapping, fine specificity analysis, serum of subject P205: serum 16 wpi of vaccinated patient P205; for Epitope mapping, fine specificity analysis, serum of subject P206: serum 16 wpi of vaccinated patient P206; for Epitope mapping, fine specificity analysis, serum of subject P207: serum 16 wpi of vaccinated patient P207; for Epitope mapping, fine specificity analysis, serum of subject P208: serum 16 wpi of vaccinated patient P208; for Epitope mapping, fine specificity analysis, serum of subject P209: serum 16 wpi of vaccinated patient P209; for Epitope mapping, fine specificity analysis, serum of subject P210: serum 16 wpi of vaccinated patient P210
[3] = test system: anti-Aβ antibodies in macaque antisera; experiment: Specificity analysis (10-mer peptide ELISA) of antisera from Cynomolgus macaques; format: binding
[4] = antisera of macaques given UBI AD Vaccine 150 μg/dose, 9 WPI
[5] = antisera of macaques given UBI AD Vaccine 150 μg/dose, 15 WPI
[6] = antisera of macaques given UBI AD Vaccine 750 μg/dose, 9 WPI
[7] = antisera of macaques given UBI AD Vaccine 750 μg/dose, 15 WPI

Substance	ELISA Titer titers (Log10) ([1]; 0 weeks post immunization)	ELISA Titer titers (Log10) ([1]; 10 weeks post immunization)	ELISA Titer titers (Log10) ([1]; 84 weeks post immunization)	ELISA Titer titers (Log10) ([1]; 111 weeks post immunization)	Epitope mapping, fine specificity analysis, serum of subject P101 [2]	Epitope mapping, fine specificity analysis, serum of subject P102 [2]	Epitope mapping, fine specificity analysis, serum of subject P103 [2]	Epitope mapping, fine specificity analysis, serum of subject P104 [2]	Epitope mapping, fine specificity analysis, serum of subject P105 [2]	Epitope mapping, fine specificity analysis, serum of subject P106 [2]	Epitope mapping, fine specificity analysis, serum of subject P107 [2]	Epitope mapping, fine specificity analysis, serum of subject P108 [2]	Epitope mapping, fine specificity analysis, serum of subject P109 [2]	Epitope mapping, fine specificity analysis, serum of subject P201 [2]	Epitope mapping, fine specificity analysis, serum of subject P202 [2]	Epitope mapping, fine specificity analysis, serum of subject P203 [2]	Epitope mapping, fine specificity analysis, serum of subject P204 [2]	Epitope mapping, fine specificity analysis, serum of subject P205 [2]	Epitope mapping, fine specificity analysis, serum of subject P206 [2]	Epitope mapping, fine specificity analysis, serum of subject P207 [2]	further results
19 (FRHDSGYEVH) [Peptide 19]	0.20	0.40	0.22	0.30																	
20 (RHDSGYEVHH) [Peptide 20]	0.23	0.34	0.27	0.41																	
21 (HDSGYEVHHQ) [Peptide 21]	0.21	0.40	0.18	1.14																	
22 (DSGYEVHHQK) [Peptide 22]	0.32	0.78	0.64	0.76																	
23 (SGYEVHHQKL) [Peptide 23]	0.13	0.49	0.51	0.78																	
24 (GYEVHHQKLV) [Peptide 24]	0.13	0.27	0.19	0.12																	
25 (YEVHHQKLVF) [Peptide 25]	0.16	0.43	0.15	0.22																	
25 (YEVHHQKLVF; PEPTIDE (1)..(10) Abeta 10-19 or APP 770(Y681-F690); listed as Homo sapiens) [compound 25]					0	0	0	0	0	0	0	0	0	0	0	0	0	0	0	10	Epitope mapping, fine specificity analysis, serum of subject P208 [2]: 0; Epitope mapping, fine specificity analysis, serum of subject P209 [2]: 0; Epitope mapping, fine specificity analysis, serum of subject P210 [2]: 0; Reactivity of antisera with peptide (specificity analysis ELISA) [3, 4]: 0.092; Reactivity of antisera with peptide (specificity analysis ELISA) [3, 5]: 0.069; Reactivity of antisera with peptide (specificity analysis ELISA) [3, 6]: 0.069; Reactivity of antisera with peptide (specificity analysis ELISA) [3, 7]: 0.058
28 (HHQKLVFFAE; PEPTIDE (1)..(10) Abeta 13-22 or APP 770(H684-E693); listed as Homo sapiens) [compound 28]					0	0	0	0	0	0	0	0	0	0	0	0	0	0	0	0	Epitope mapping, fine specificity analysis, serum of subject P208 [2]: 0; Epitope mapping, fine specificity analysis, serum of subject P209 [2]: 0; Epitope mapping, fine specificity analysis, serum of subject P210 [2]: 0; Reactivity of antisera with peptide (specificity analysis ELISA) [3, 4]: 0.044; Reactivity of antisera with peptide (specificity analysis ELISA) [3, 5]: 0.052; Reactivity of antisera with peptide (specificity analysis ELISA) [3, 6]: 0.046; Reactivity of antisera with peptide (specificity analysis ELISA) [3, 7]: 0.032
29 (HQKLVFFAED; PEPTIDE (1)..(10) Abeta 14-23 or APP 770(H685-D694); listed as Homo sapiens) [compound 29]					0	0	0	0	0	0	0	0	0	0	0	0	0	0	0	0	Epitope mapping, fine specificity analysis, serum of subject P208 [2]: 0; Epitope mapping, fine specificity analysis, serum of subject P209 [2]: 0; Epitope mapping, fine specificity analysis, serum of subject P210 [2]: 0; Reactivity of antisera with peptide (specificity analysis ELISA) [3, 4]: 0.050; Reactivity of antisera with peptide (specificity analysis ELISA) [3, 5]: 0.058; Reactivity of antisera with peptide (specificity analysis ELISA) [3, 6]: 0.047; Reactivity of antisera with peptide (specificity analysis ELISA) [3, 7]: 0.050
30 (QKLVFFAEDV; PEPTIDE (1)..(10) Abeta 15-24 or APP 770(Q686-V695); listed as Homo sapiens) [compound 30]					0	0	0	0	0	0	0	0	0	0	0	0	0	0	0	0	Epitope mapping, fine specificity analysis, serum of subject P208 [2]: 0; Epitope mapping, fine specificity analysis, serum of subject P209 [2]: 0; Epitope mapping, fine specificity analysis, serum of subject P210 [2]: 0; Reactivity of antisera with peptide (specificity analysis ELISA) [3, 4]: 0.043; Reactivity of antisera with peptide (specificity analysis ELISA) [3, 5]: 0.055; Reactivity of antisera with peptide (specificity analysis ELISA) [3, 6]: 0.062; Reactivity of antisera with peptide (specificity analysis ELISA) [3, 7]: 0.059
